Measurements taken from ChEMBL document CHEMBL5726238, “Phenyl and pyridinyl substituted piperidines and piperazines as inhibitors of IDH1 mutants and their use in treating cancer” (2017).

Target: Isocitrate dehydrogenase [NADP] cytoplasmic (Homo sapiens, UniProt O75874, R132H)
Assay: Inhibition Assay: Assays were conducted in a volume of 76 μl assay buffer (150 mM NaCl, 10 mM MgCl2, 20 mM Tris pH 7.5, 0.03% bovine serum albumin) as follows in a standard 384-well plate: To 25 ul of substrate mix (8 uM NADPH, 2 mM aKG), 1 μl of test compound was added in DMSO. […] The reaction was incubated for 50 minutes at room temperature, then 25 μl of detection mix (30 μM resazurin, […]) was added and the mixture further incubated for 5 minutes at room temperature.

Chain of Isocitrate dehydrogenase [NADP] cytoplasmic (O75874 2-414 R132H limits assumed): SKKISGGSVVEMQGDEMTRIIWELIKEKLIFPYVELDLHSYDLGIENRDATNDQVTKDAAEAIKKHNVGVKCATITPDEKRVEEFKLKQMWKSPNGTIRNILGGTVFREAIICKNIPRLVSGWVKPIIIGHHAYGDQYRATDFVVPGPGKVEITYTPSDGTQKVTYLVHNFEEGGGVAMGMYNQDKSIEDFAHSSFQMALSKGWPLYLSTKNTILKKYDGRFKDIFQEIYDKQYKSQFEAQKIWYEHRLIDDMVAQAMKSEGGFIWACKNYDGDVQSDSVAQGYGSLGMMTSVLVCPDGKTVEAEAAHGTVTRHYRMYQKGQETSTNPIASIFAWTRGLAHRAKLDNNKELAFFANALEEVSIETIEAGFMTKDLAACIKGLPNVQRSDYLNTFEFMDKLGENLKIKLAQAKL

IC50 [µM]	SMILES
< 0.5	COCCC(=O)N1CCN(c2nc(C3CC3)c3c(c2C#N)CN(S(C)(=O)=O)CC3)C[C@H]1C1CC1
< 0.5	CC(C)[C@@H]1CN(c2nc(C3CC3)c3c(c2C#N)CC(C)(C)OC3)CCN1C(=O)CCC(=O)OCCO
< 0.5	C#CC(=O)N1CCc2c(C#N)c(N3CCN(C(=O)CCOC)[C@H](C4CC4)C3)nc(C3CC3)c2C1
< 0.5	C=CC(=O)N1CCc2c(C3CC3)nc(N3CCN(C(=O)C4CC4)[C@H](C4CC4)C3)c(C#N)c2C1

SMILES	IC50 [µM]
CC(C)c1nc(N2CCN(C(=O)Cc3cccs3)CC2)c(C#N)c2c1COC(C)(C)C2	1 to 10
